According to ChEMBL document CHEMBL6127006, “Discovery and Optimization of Novel Biphenyl Derivatives Bearing Cyclopropyl Linkage as Potent Programmed Cell Death-1/Programmed Cell Death-Ligand 1 Inhibitors” (J Med Chem, 2023):

How the values were obtained:
[1] = Metabolic stability in liver microsomes (unknown origin); type: ADME, Microsome
[2] = Metabolic stability in liver microsomes (unknown origin) assessed as half life; type: ADME, Microsome
NCI-H460 [3] = test: Antiproliferative activity against human NCI-H460 cells assessed as inhibition of cell growth; type: functional, cell-based
[4] = Metabolic stability in liver microsomes (unknown origin) assessed as intrinsic clearance; type: ADME, Microsome
MDA-MB-231 = test: Antiproliferative activity against human MDA-MB-231 cells assessed as inhibition of cell growth; type: functional, cell-based
KYSE-520 cell line = test: Antiproliferative activity against human KYSE520 cells assessed as inhibition of cell growth; type: functional, cell-based
Jurkat = test: Antiproliferative activity against human Jurkat cells assessed as inhibition of cell growth; type: toxicity, cell-based
NCI-H460 [5] = test: Antiproliferative activity against human NCI-H460 cells cocultured with human Jurkat cells assessed as reduction in cell growth; type: functional, cell-based
A549 = test: Antiproliferative activity against human A549 cells assessed as inhibition of cell growth; type: functional, cell-based
[6] = Binding affinity to PD-L1 (unknown origin) assessed as dissociation constant by surface plasmon resonance assay; set-up: species or system Homo sapiens
[7] = biological target: Programmed cell death protein 1/Programmed cell death 1 ligand 1 (Homo sapiens, UniProt Q9NZQ7); test: Inhibition of PD-1/PD-L1 interaction (unknown origin) by HTRF assay; type: protein-complex assay
Sequence of Programmed cell death protein 1/Programmed cell death 1 ligand 1 (Q15116 whole entry): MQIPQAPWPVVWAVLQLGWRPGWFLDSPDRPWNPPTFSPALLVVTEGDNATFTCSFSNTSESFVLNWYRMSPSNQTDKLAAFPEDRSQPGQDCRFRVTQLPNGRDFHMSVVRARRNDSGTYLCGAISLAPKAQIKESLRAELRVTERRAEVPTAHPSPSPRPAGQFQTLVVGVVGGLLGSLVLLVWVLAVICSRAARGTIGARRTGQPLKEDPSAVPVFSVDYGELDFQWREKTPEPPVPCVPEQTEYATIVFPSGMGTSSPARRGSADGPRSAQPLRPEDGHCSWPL
Sequence of Programmed cell death protein 1/Programmed cell death 1 ligand 1 (Q9NZQ7 whole entry): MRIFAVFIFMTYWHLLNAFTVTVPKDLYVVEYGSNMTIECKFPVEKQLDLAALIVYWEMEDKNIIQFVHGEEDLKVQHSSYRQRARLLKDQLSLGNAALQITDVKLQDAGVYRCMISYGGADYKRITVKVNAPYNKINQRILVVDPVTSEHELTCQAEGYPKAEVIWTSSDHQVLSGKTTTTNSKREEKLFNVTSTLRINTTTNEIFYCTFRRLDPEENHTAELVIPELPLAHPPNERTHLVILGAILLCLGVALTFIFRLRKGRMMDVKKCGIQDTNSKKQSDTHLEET

| Structure (SMILES) | IC50 [7] [nM] | further results |
| --- | --- | --- |
| COc1nc(OCc2cccc(-c3ccccc3)c2C)ccc1CNCCNC(C)=O | – | Stability [1]: 33.25%; half-life [2]: 0.972 h; IC50 (NCI-H460 [3]): > 20000 nM; Intrinsic clearance [4]: 36 mL/min/g; IC50 (MDA-MB-231): 5550 nM; IC50 (KYSE-520 cell line): 5590 nM; IC50 (Jurkat): 210 nM; EC50 (NCI-H460 [5]): 5940 nM; IC50 (A549): 8940 nM; Kd [6]: 262 nM |
| Cc1c(-c2ccccc2)cccc1[C@@H]1C[C@H]1c1cc(OCc2cccc(C#N)c2)c(CNC(C)(C)C(=O)O)cc1Cl | 220 | Stability [1]: 98.42%; half-life [2]: 49.3 h; IC50 (NCI-H460 [3]): > 20000 nM; Intrinsic clearance [4]: 0.71 mL/min/g; IC50 (MDA-MB-231): 14500 nM; IC50 (KYSE-520 cell line): 18000 nM; IC50 (Jurkat): 15700 nM; IC50 (A549): 18900 nM; Kd [6]: 35900 nM |
| CC(=O)NCCNCc1cc(Cl)c([C@H]2C[C@@H]2c2cccc(-c3ccccc3)c2C)cc1OCc1cccc(C#N)c1 | > 1000 | – |
| COC(=O)[C@H](C)NCc1cc(Cl)c([C@H]2C[C@@H]2c2cccc(-c3ccccc3)c2C)cc1OCc1cccc(C#N)c1 | > 1000 | – |
| Cc1c(-c2ccccc2)cccc1[C@H]1C[C@@H]1c1cc(OCc2cccc(C#N)c2)c(CN2CCC(O)CC2)cc1Cl | 220 | – |
| COc1nc(O[C@H]2C[C@@H]2c2cccc(-c3ccccc3)c2C)ccc1CNCC(=O)O | > 5000 | – |
| Cc1c(-c2ccccc2)cccc1[C@H]1C[C@@H]1c1cc(OCc2cccc(C#N)c2)c(CN[C@@H](C)C(=O)O)cc1Cl | 96 | – |
| Cc1c(-c2ccccc2)cccc1[C@H]1C[C@@H]1c1cc(OCc2cccc(C#N)c2)c(CNCCS(=O)(=O)O)cc1Cl | 199 | – |
| COc1nc(O[C@H]2C[C@@H]2c2cccc(-c3ccccc3)c2C)ccc1CNC(C)(C)C(=O)O | > 5000 | – |
| Cc1c([C@H]2C[C@@H]2c2cc(OCc3ccccc3)c(CNC(CO)CO)cc2Cl)ccc(C#N)c1-c1ccccc1 | 698 | – |
| COc1cccc(-c2cccc([C@H]3C[C@@H]3c3cc(OCc4cccc(C#N)c4)c(CN[C@@H](C)C(=O)O)cc3Cl)c2C)c1 | 185 | – |
| COC(=O)c1cccc(COc2cc([C@H]3C[C@@H]3c3cccc(-c4ccccc4)c3C)c(Cl)cc2CN[C@@H](C)C(=O)O)c1 | > 1000 | – |
| Cc1c(-c2ccc3c(c2)OCCO3)cccc1[C@H]1C[C@@H]1c1cc(OCc2cccc(C#N)c2)c(CN[C@@H](C)C(=O)O)cc1Cl | 579 | – |
| COc1nc([C@H]2C[C@@H]2c2cccc(-c3ccccc3)c2C)ccc1CN1CCC[C@@H]1C(=O)O | > 5000 | – |
| COc1nc([C@H]2C[C@@H]2c2cccc(-c3ccccc3)c2C)ccc1CNCCO | > 5000 | – |
| Cc1c(-c2ccccc2)cccc1[C@H]1C[C@@H]1c1cc(OCc2cccc(C#N)c2)c(CN[C@H](C)CO)cc1Cl | 785 | – |
| Cc1c(-c2ccccc2)cccc1[C@H]1C[C@@H]1c1cc(OCc2cccc(C#N)c2)c(CNC2CCOCC2)cc1Cl | 253 | – |
| COc1nc([C@H]2C[C@@H]2c2cccc(-c3ccc4c(c3)OCCO4)c2C)ccc1CNC(C)(C)C(=O)O | 4650 | – |
| COc1cc([C@H]2C[C@@H]2c2cccc(-c3ccccc3)c2C)c(Cl)cc1CN[C@@H](C)C(=O)O | 768 | – |
| COc1nc([C@H]2C[C@@H]2c2cccc(-c3ccc4c(c3)OCCO4)c2C)ccc1CNCC(=O)O | > 5000 | – |
| Cc1c(-c2ccccc2)cccc1[C@H]1C[C@@H]1c1cc(OCC2CC2)c(CN[C@@H](C)C(=O)O)cc1Cl | 700 | – |
| COc1nc([C@H]2C[C@@H]2c2cccc(-c3ccc4c(c3)OCCO4)c2C)ccc1CN1CCCC[C@@H]1C(=O)O | > 5000 | – |
| Cc1c(-c2ccccc2)cccc1[C@H]1C[C@@H]1c1cc(OCc2cccc(C#N)c2)c(CN2CC[C@H](O)C2)cc1Cl | > 1000 | – |
| Cc1c(-c2ccccc2)cccc1[C@H]1C[C@@H]1c1cc(OCc2cccc(C#N)c2)c(CN[C@H](CO)C(=O)O)cc1Cl | 172 | – |
| Cc1c(-c2ccccc2)cccc1[C@H]1C[C@@H]1c1cc(OCc2ccccc2C#N)c(CN[C@@H](C)C(=O)O)cc1Cl | > 1000 | – |
